Among the test systems are HOP-18 NSCLC; M19-MEL melanoma; RXF-631 renal; KM20L2 colon; DLD-1 colon.
What all share (experiment): inhibition of tumour cell growth, NCI panel, 48 h

This is an account of results in PubChem BioAssay (NCI).

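Grown in 96-well plates, cells were treated for 48 hours with each compound at five concentrations. Insufficient inhibition: endpoint recorded as highest concentration tested. GI50 = concentration required for 50% inhibition of growth. At the TGI there is no net growth.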

For the compound `CC1=C2C(=CC(C)(CO)C2O)C(=O)C(C)(O)C12CC2` (stereo not drawn), the TGI amounted to 0.0331 µM with HOP-18 NSCLC; 0.0116 µM in the assay with M19-MEL melanoma; 0.0359 µM with RXF-631 renal; 0.0137 µM in the assay with KM20L2 colon; 0.0738 µM in the assay on DLD-1 colon.
On to `O=NN(CCCl)C(=O)NCc1ccc[n+]([O-])c1`, for which the TGI with M19-MEL melanoma, in the assay on RXF-631 renal, with KM20L2 colon and with DLD-1 colon was greater than 100 µM each time.
Take `Brc1nc2c3ccccc3ncn2c1Br`: the TGI was 47.8 µM with HOP-18 NSCLC; greater than 100 µM with M19-MEL melanoma; greater than 100 µM with RXF-631 renal; greater than 100 µM in the assay with KM20L2 colon; greater than 100 µM with DLD-1 colon.
Take `O=[N+]([O-])c1ccc(OCCNc2cccc3ccccc23)cc1`: the TGI with HOP-18 NSCLC, in the assay on M19-MEL melanoma, in the assay with RXF-631 renal, with KM20L2 colon and in the assay on DLD-1 colon was greater than 100 µM throughout.
As for `CN(OC(=O)CC(=O)c1ccccc1)C(=O)Cc1ccccc1`, the TGI with M19-MEL melanoma, in the assay on RXF-631 renal, in the assay on KM20L2 colon and in the assay with DLD-1 colon was greater than 100 µM throughout.
On to `COc1cccc(/C=C\c2cc(OC)c(OC)c(OC)c2)c1`, for which the TGI is greater than 100 µM in the assay with M19-MEL melanoma, greater than 100 µM with RXF-631 renal, 1.56 µM in the assay on KM20L2 colon and greater than 100 µM in the assay with DLD-1 colon.
Consider `O=C1C(c2ccc(Cl)cc2)=[N+]([O-])c2ccccc21`, for which the TGI is 58.9 µM with HOP-18 NSCLC; greater than 100 µM with M19-MEL melanoma; 48.4 µM in the assay with RXF-631 renal; 52.1 µM in the assay on KM20L2 colon; 30.1 µM in the assay on DLD-1 colon.
For the compound `C=CC[P@@]1(=O)O[C@H](c2ccccc2)C(C)N1C(C)C` (stereo partly drawn), the TGI in the assay on HOP-18 NSCLC, in the assay on M19-MEL melanoma, in the assay with RXF-631 renal and with DLD-1 colon was greater than 100 µM throughout.
As to `CC(C)(C)c1ccc(Oc2ccc(C#N)c(C#N)c2)c(C(C)(C)C)c1`, the TGI in the assay with HOP-18 NSCLC, in the assay with RXF-631 renal, in the assay on KM20L2 colon and in the assay on DLD-1 colon was greater than 100 µM throughout.
`CCCOP1(=O)C=C(C)C(Cl)=C(C)C1` (stereo not drawn): the TGI in the assay on HOP-18 NSCLC was greater than 100 µM; in the assay on M19-MEL melanoma, 52.7 µM; in the assay with RXF-631 renal, greater than 100 µM; with KM20L2 colon, 88.8 µM; in the assay with DLD-1 colon, 96.3 µM.
Consider `N#CC12CCC(O)C(CC1)C2=O` (stereo not drawn), for which the TGI with HOP-18 NSCLC, with M19-MEL melanoma, with RXF-631 renal, with KM20L2 colon and with DLD-1 colon was greater than 100 µM in each case.
Regarding `O=C(c1ccccc1)c1ccc2cccc(O)c2n1`, the TGI in the assay on HOP-18 NSCLC, in the assay on M19-MEL melanoma, in the assay with RXF-631 renal, in the assay on KM20L2 colon and with DLD-1 colon was greater than 100 µM throughout.
As to `CC(=O)CC(=O)CCCC(=O)Nc1ccc(Cl)cc1Cl`, the TGI in the assay on HOP-18 NSCLC, with RXF-631 renal, in the assay with KM20L2 colon and in the assay on DLD-1 colon was greater than 100 µM in each case.
Take `COC(=O)C(=O)C(C(=O)C(=O)Nc1ccc([N+](=O)[O-])cc1[N+](=O)[O-])c1nc2ccc([N+](=O)[O-])cc2[nH]c1=O` (stereo not drawn): the TGI in the assay on HOP-18 NSCLC, with M19-MEL melanoma, in the assay with RXF-631 renal, with KM20L2 colon and in the assay on DLD-1 colon was greater than 100 µM in each case.
Regarding `Cc1c2[nH]c3ccc(Br)cc3c2c(C)c2[nH]ccc(=O)c12`, the TGI in the assay with HOP-18 NSCLC is 22.9 µM; in the assay on M19-MEL melanoma, 29.6 µM; in the assay with DLD-1 colon, greater than 100 µM.
As for `CCC12CCC(O)C1N(C)CCC2Sc1ccccc1` (stereo not drawn), the TGI in the assay on HOP-18 NSCLC, with M19-MEL melanoma, in the assay on RXF-631 renal and with KM20L2 colon was greater than 100 µM throughout.
As to `Cc1cc(N(CCC#N)CCC#N)ccc1N=Nc1ccccc1[N+](=O)[O-]`, the TGI in the assay on HOP-18 NSCLC, in the assay on M19-MEL melanoma, with RXF-631 renal and with DLD-1 colon was greater than 100 µM throughout.
Consider `Cc1ccc(C)c(NC(=O)CC2C(=O)Nc3ccccc3S2(=O)=O)c1` (stereo not drawn), for which the TGI with M19-MEL melanoma, in the assay with RXF-631 renal, in the assay on KM20L2 colon and in the assay with DLD-1 colon was greater than 100 µM throughout.
With `Cc1ccc(C2=[N+]([O-])c3ccccc3C2=O)cc1`, the TGI was greater than 100 µM in the assay on HOP-18 NSCLC; greater than 55.4 µM in the assay on M19-MEL melanoma; 51.7 µM in the assay on RXF-631 renal; 98.6 µM in the assay with KM20L2 colon; 57.2 µM with DLD-1 colon.
The matching figures for `O=C(Nc1ccccc1)O/N=C1/CCCC/C1=C\c1ccccc1`: 29.9 µM, 34 µM, 47.3 µM, 43.2 µM and 29.4 µM.
As to `N.N.NCCCCN.O=C([O-])CC(=O)[O-].O=C([O-])CC(=O)[O-].[Pt+4].[Pt+4]`, the GI50 with HOP-18 NSCLC, in the assay with KM20L2 colon and in the assay with DLD-1 colon was greater than 100 µM each time. Besides, the TGI in the assay on HOP-18 NSCLC, in the assay on KM20L2 colon and in the assay with DLD-1 colon was greater than 100 µM each time.
For `COC1CCC2C(=O)CCCC2O1` (stereo not drawn), the TGI with HOP-18 NSCLC, in the assay with M19-MEL melanoma, in the assay with RXF-631 renal, in the assay on KM20L2 colon and in the assay with DLD-1 colon was greater than 100 µM in each case.
As for `CCCCCCC(O)C/C=C/CCCCCC/C(C(=O)OC)=C(/O)C(=O)OCC` (stereo not drawn), the TGI in the assay with HOP-18 NSCLC, in the assay on M19-MEL melanoma, with RXF-631 renal and in the assay with DLD-1 colon was greater than 100 µM each time.
As to `COC(=O)C1Cc2c(n(C)c3ccccc23)C(c2ccccc2)N1` (stereo not drawn), the TGI in the assay with HOP-18 NSCLC, in the assay with M19-MEL melanoma, in the assay with RXF-631 renal and with KM20L2 colon was greater than 100 µM each time.
